The values below come from patent publication US4537962A, “Substituted 1,3,4-thiadiazolo[3,2-A]pyrimidines and compositions containing them” (Farmitalia Carlo Erba, S.p.A., priority 1982, dated 1985).

SMILES strings stand for the structures.

As usually defined, the LD50 is the dose at which mortality reaches 50%. Read a high LD50 as lower toxicity. As a reminder, the ED50 is the midpoint of the dose-response relation.

Series [1] in a line: approximate acute toxicity (LD50) in the mouse. The settings on record: in vivo, po, per os, single administration of increasing doses, measured on the seventh day after the day of treatment. The source says: In view of their high therapeutic index, the compounds of the invention can be used safely in medicine, For example, the approximate acute toxicity (LD50) of the compounds 7-trans-(2-phenyl-ethenyl)-5H-1,3,4-thiadiazolo[3,2-a]pyrimidine-5-one, 2-methyl-7-trans-(2-phenyl-ethenyl)-5H-1,3,4-thiadiazolo[3,2-a]pyrimidine- 5-one, 7-trans-[2-(2,6-dichloro-phenyl)-ethenyl]-5H-1,3,4-thiadiazolo[3,2-a]pyrimidine-5-one, 7-trans-[2-(3-pyridyl)-ethenyl]-5H-1,3,4-thiadiazolo[3,2-a]pyrimidine-5-one, 7-trans-[2-(4-fluoro-phenyl)-ethenyl]-5H-1,3,4-thiadiazolo[3,2-a]pyrimidine-5-one, 2-phenyl-7-trans-[2-(3-pyridyl)-ethenyl]-5H-1,3,4-thiadiazolo[3,2-a]pyrimidine-5-one and 2-(4-methyl-phenyl)-7-trans-[2-(3-pyridyl)-ethenyl]-5H-1,3,4-thiadiazolo[3,2-a]pyrimidine-5-one in the mouse, determined by single administration of increasing doses and measured on the seventh day after the day of treatment, is higher than 800 mg/kg per os. Analogous toxicity data have been found for the other compounds of the invention.

Another series relates to gastric secretion. Kind of series: gastric antisecretory activity in rats by the pylorus ligature technique (method of H. Shay et al.). It is filed as in vivo, Sprague-Dawley male rats. The settings on record: 4 h; approximate ED50; rat, intraduodenal, four hours after pylorus ligature. How it is done:
Gastric antisecretory activity was evaluated in rats by the pylorus ligature technique. Six Sprague-Dawley male rats (110-130 g) were used for each group. Twenty-four hours before the test, the rats were deprived of food but their water supply was maintained. On the day of the operation, the pylorus was ligated under light ether anaesthesia. Each compound was injected intraduodenally (i.d.) at the time of the ligature. Four hours after the ligature the rats were sacrificed, the stomach secretion was collected and centrifuged at 3500 r.p.m. for 10 minutes, and the volume, less sediment, was determined.
The amount of the free hydrochloric acid in the gastrc juice was determined by titration against 0.01N sodium hydroxide to pH 7.0 on the pH-meter.

The next series has as its system restraint ulcers. Description: inhibition of restraint ulcers in rats (anti-ulcerogenic activity, method of Bonfils et al.). It is filed as in vivo, Sprague-Dawley male rats. The settings on record: po; approximate ED50; rat, p.o. one hour before the immobilization; 4 hours immobilization; read-out: Antiulcerogenic activity p.o., ED50. The source says:
The compounds of the present invention are active on the gastroenteric system, in particular they are endowed with anti-ulcerogenic and gastric anti-secretory activity and are therefore useful in therapy, for example in the prevention and treatment of peptic, e.g. duodenal, gastric and exophageal ulcers and to inhibit gastric acid secretion. The compounds of the invention are also useful for reducing the undesirable gastrointestinal side-effects resulting from systemic administration of anti-inflammatory prostaglandin synthetase inhibitors and may be, therefore, used for this purpose in association with them. The anti-ulcerogenic activity of the compounds of the invention is shown, e.g., by the fact that they are active in the test of the inhibition of restraint ulcers in rats, according to the method of Bonfils et al., (Therapie, 1960, 15, 1096; Jap. J. Pharmac. 1968, 18, 9).
Six Sprague-Dawley male rats (100-120 g) fasted 24 hours were used for the experiment: a square flexible small-mesh wire netting was used for the immobilization and 4 hours after the immobilization the rats were sacrificed, their stomachs were removed and the lesions counted under a dissecting microscope. The tested compounds were administered per os (p.o.) one hour before the immobilization.

As to `O=c1cc(/C=C/c2c(Cl)cccc2Cl)nc2scnn12` [7-trans-[2-(2,6-dichloro-phenyl)-ethenyl]-5H-1,3,4-thiadiazolo[3,2-a]pyrimidine-5-one], the median lethal dose (LD50) at 168 h in series [1] was > 800 mg/kg.

For the compound `O=c1cc(/C=C/c2ccccc2)nc2scnn12` [7-trans-(2-phenyl-ethenyl)-5H-1,3,4-thiadiazolo[3,2-a]pyrimidine-5-one], the LD50 at 168 h in series [1] is > 800 mg/kg.

Regarding `Cc1ccc(-c2nn3c(=O)cc(/C=C/c4cccnc4)nc3s2)cc1` [2-(4-methyl-phenyl)-7-trans-[2-(3-pyridyl)-ethenyl]-5H-1,3,4-thiadiazolo[3,2-a]pyrimidine-5-one], the LD50 at 168 h in series [1] was > 800 mg/kg. The ED50 in the series with gastric secretion is ~50 mg/kg.

For `O=c1cc(/C=C/c2cccnc2)nc2scnn12` [7-trans-[2-(3-pyridyl)-ethenyl]-5H-1,3,4-thiadiazolo[3,2-a]pyrimidine-5-one], the LD50 at 168 h in series [1] is > 800 mg/kg.

As for `Cc1nn2c(=O)cc(/C=C/c3ccccc3)nc2s1` [2-methyl-7-trans-(2-phenyl-ethenyl)-5H-1,3,4-thiadiazolo[3,2-a]pyrimidine-5-one], the LD50 at 168 h in series [1] was > 800 mg/kg.

Take `O=c1cc(/C=C/c2ccc(F)cc2)nc2scnn12`: the LD50 at 168 h in series [1] is > 800 mg/kg.

Take `O=c1cc(/C=C/c2cccnc2)nc2sc(-c3ccccc3)nn12` [2-phenyl-7-trans-[2-(3-pyridyl)-ethenyl]-5H-1,3,4-thiadiazolo[3,2-a]pyrimidine-5-one]: the median lethal dose (LD50) at 168 h in series [1] was > 800 mg/kg. In addition, in the series with restraint ulcers, the ED50 was 3 mg/kg.
